Experimental data from US6177424A, “4'-Substituted-4',5'-dihydropsoralens and therapeutical uses thereof” (priority 1999, dated 2001).
Counter-ions that a name gives are not always drawn. Like-named read-outs stand apart in the source and are kept apart here.

System: PAM 212 keratinocytes
Assay: PAM 212 keratinocyte growth inhibition assay (photobiological activity; Toxicity, Table I)
Type: cell-based
Details: Mus musculus, PAM212, light or radiation study
Excerpt: Psoriasis, mycosis fungolides, eczema, scleroderma, cancer, and similar proliferative diseases are often characterized by abnormal cell growth regulation. Application of PUVA therapy to correct proliferative disorders on the skin or internally, especially psoriasis, is one clinical expression of photochemotherapy. The use of the assay described in Example 16 is based on the observation that phototherapeutics are extremely potent inhibitors of growth factor binding in mammalian cells including humans and this inhibition arrests the proliferative disorder. This assay was performed in the cell culture laboratory. For a discussion of cell growth assays see, e.g:, J. Laskin et al., Cancer Research, vol. 39, pp. 383-390 (1979) and E. Yurkow and J. Laskin, Cancer Chemotherapy and Pharmacology, vol. 27, pp. 315-319, (1991). Inhibition of cell growth is dependent on dose ol the phototherapeutic and on the quanta of light in the 320-400 nm wavelength (ultraviolet light A). It is also structure-dependent, that is, there is a direct correlation between those specific phototherapeutics currently used that are clinically active and their ability to inhibit the growth of the cells.
Representative examples of the compounds described and claimed herein were tested in this assay for biological activity and found to be potent inhibitors of cell growth. Inhibition of cell growth was rapid, dependent on concentration, and required light activation. […] A description of this assay follows.
The photobiological activity was assayed using a keratinocyte cell line grown in a monolayer culture. In this assay, PAM 212 keratinocytes were grown in Dulbecco's Modified Eagle's medium supplemented with 10% newborn calf serum in a 5% carbon dioxide incubator. Cells were inoculated into 6-well Falcon plastic culture dishes at 25,000 cells per well. After 24 hours, the medium was charged to fresh growth medium supplemented with increasing concentrations of the test compounds or the control medium. Controls and test concentrations were analyzed in triplicate.
These plates were then incubated in a 37° C. carbon dioxide incubator. […] The incident light on the culture plates was 2.4 mW/cm^2 as measured with an International Light UV radiometer, Model IL 442A. […]
After completion of the irradiation phase, the cell culture medium was drained, the cells refed with fresh growth medium and then re-incubated in the carbon dioxide incubator to allow for cell growth. After 4-5 days of growth the culture plates were removed from the incubator and the cell culture medium was drained. The cells were detached from the plates with trypsin and counted in a Coulter Counter. For control cells or for cells treated with test compounds, cell growth was determined as a percentage of control. […] This value is shown in Table I for a variety of phototherapeutics.

[1] = dark (no UVA light), read-out: Dark-toxicity (IC50 values)
[2] = with UVA (320-400 nm) 1.28 J/square centimeter after 30 minutes incubation, 4-5 days of growth, read-out: Photo-toxicity (IC50 values), concentration at which photoactivated test compound inhibited growth by 50%

Compound	IC50 [1] [µM]	IC50 [2] [µM]
Cc1c(Br)c(=O)oc2c(C)c3c(cc12)C(C[n+]1ccccc1)CO3 (stereo not shown) [Example 12, 3-Bromo-4,8-dimethyl-4'-pyridiniummethyl-4',5'-dihydropsoralen Iodide Salt]	70	> 30
C=CCOc1c([N+](=O)[O-])cc2c(C)cc(=O)oc2c1C [Example 2, 6-Nitro-4,8-dimethyl-7-allyloxycoumarin]	> 100	5
Cc1cc(=O)oc2c(C)c3c(cc12)C(CI)CO3 (stereo not shown) [Example 5, 4,8-Dimethyl-4'-iodomethyl-4',5'-dihydropsoralen]	> 100	0.1
C=CCOc1c(N)cc2c(C)cc(=O)oc2c1C [Example 3, 6-Amino-4.8-dimethyl-7-allyloxycoumarin]	> 100	240
Cc1c(Br)c(=O)oc2c(C)c3c(cc12)C(CI)CO3 (stereo not shown) [Example 6, 3-Bromo-4,8-dimethyl-4'-iodomethyl-4',5'-dihydropsoralen]	–	0.2 to 0.5
Cc1cc(=O)oc2c(C)c3c(cc12)C(C[n+]1ccccc1)CO3 (stereo not shown) [Example 9, 4,8-Dimethyl-4'-pyridiniummethyl-4',5'-dihydropsoralen Iodide Salt]	–	0.5
Cc1cc(=O)oc2c(C)c(O)c([N+](=O)[O-])cc12 [Example 1, 6-Nitro-4,8-dimethyl-7-hydroxycoumarin]	–	> 300
Cc1cc(=O)oc2c(C)c3c(cc12)C(CC#N)CO3 (stereo not shown) [Example 15, 4,8-Dimethyl-4'-cyanomethyl-4',5'-dihydropsoralen]	> 100	3
